# Activity calls are given as the source filed them. The rule behind the calls is not given here.
# Legend:
# [1] = target: T1, Ectonucleoside triphosphate diphosphohydrolase 3 (Homo sapiens) (UniProt O75355); test: Inhibition of human recombinant NTPDase3 expressed in NS0 cells using ATP as substrate at 10 to 1000 uM preincubated with substrate followed by protein addition and subsequent incubation for 30 mins by capillary electrophoresis
# T1 sequence (whole entry): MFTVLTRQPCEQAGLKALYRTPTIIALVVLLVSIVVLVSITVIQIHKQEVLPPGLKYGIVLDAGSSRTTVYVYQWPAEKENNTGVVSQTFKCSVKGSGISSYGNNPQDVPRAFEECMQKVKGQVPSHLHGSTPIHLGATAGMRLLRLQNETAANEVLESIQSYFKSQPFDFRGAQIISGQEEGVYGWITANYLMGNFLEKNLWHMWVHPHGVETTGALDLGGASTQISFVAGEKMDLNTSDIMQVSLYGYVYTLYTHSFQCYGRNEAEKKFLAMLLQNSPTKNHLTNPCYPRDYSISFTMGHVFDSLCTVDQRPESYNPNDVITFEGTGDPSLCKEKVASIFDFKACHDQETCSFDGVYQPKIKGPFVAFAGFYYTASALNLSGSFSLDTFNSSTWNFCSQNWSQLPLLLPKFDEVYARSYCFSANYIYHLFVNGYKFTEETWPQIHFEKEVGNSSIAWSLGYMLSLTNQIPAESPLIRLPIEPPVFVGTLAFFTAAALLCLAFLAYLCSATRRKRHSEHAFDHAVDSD
# [2] = target: T2, Ectonucleotide pyrophosphatase/phosphodiesterase family member 3 (Homo sapiens) (UniProt O14638); test: Inhibition of human recombinant NPP3 expressed in insect SF9 cells using ATP as substrate at >100 uM preincubated with substrate followed by protein addition and subsequent incubation for 60 mins by capillary electrophoresis
# T2 sequence (whole entry): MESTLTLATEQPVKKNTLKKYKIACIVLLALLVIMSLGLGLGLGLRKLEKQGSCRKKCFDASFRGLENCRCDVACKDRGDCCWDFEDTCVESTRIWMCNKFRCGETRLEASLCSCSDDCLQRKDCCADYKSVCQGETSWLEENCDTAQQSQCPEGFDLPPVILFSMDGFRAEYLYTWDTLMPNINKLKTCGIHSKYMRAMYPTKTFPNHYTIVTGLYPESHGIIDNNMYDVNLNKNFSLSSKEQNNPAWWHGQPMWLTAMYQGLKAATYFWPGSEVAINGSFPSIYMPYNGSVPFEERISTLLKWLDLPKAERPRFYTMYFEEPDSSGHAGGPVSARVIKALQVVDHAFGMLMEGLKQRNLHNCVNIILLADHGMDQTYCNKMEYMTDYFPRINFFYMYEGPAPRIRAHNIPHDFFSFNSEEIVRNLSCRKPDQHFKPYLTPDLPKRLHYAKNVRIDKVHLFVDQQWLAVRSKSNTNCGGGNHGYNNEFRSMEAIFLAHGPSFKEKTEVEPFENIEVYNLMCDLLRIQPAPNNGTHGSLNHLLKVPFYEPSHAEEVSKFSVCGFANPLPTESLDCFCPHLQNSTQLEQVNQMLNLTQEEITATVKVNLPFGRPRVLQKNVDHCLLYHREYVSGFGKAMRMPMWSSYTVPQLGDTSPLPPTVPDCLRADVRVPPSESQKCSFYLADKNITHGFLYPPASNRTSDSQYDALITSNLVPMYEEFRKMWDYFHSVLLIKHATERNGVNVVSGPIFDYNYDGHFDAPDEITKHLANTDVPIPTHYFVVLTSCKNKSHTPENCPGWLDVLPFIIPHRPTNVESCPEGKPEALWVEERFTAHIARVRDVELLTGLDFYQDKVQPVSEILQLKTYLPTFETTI
# [3] = target: 5'-nucleotidase (Homo sapiens) (UniProt P21589); test: Inhibition of human recombinant Ecto-5'-nucleotidase expressed in CHO cells using AMP as substrate at >100 uM preincubated with substrate followed by protein addition and subsequent incubation for 30 mins by capillary electrophoresis
# [4] = target: T3, Alkaline phosphatase, tissue-nonspecific isozyme (Homo sapiens) (UniProt P05186); test: Inhibition of human recombinant TNAP expressed in NS0 cells using p-nitrophenyl phosphate as substrate at 10 to 1000 uM preincubated with substrate followed by protein addition and subsequent incubation for 30 mins by colorimetric analysis
# T3 sequence (whole entry): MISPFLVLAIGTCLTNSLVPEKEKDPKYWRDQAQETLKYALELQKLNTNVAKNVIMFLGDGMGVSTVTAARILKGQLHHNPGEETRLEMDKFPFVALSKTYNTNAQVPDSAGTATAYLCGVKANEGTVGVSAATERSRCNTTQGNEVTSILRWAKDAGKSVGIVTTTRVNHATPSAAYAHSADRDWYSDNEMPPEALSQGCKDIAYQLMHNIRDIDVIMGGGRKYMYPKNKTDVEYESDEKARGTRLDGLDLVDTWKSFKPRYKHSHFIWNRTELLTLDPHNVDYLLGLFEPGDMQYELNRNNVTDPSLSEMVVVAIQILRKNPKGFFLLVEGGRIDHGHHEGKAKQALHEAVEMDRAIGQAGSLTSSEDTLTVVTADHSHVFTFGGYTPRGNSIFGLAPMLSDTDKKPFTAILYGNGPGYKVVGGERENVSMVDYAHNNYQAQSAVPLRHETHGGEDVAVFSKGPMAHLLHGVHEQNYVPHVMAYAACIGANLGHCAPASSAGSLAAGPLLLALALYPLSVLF
# [5] = Chemical stability of the compound at pH 9 at 25 degC after 8 hrs by HPLC-MS analysis; assay type: physicochemical; conditions: buffer, pH 9, 8 h
# [6] = Chemical stability of the compound assessed as compound remaining at pH 9 at 25 degC after 24 hrs by HPLC-MS analysis; assay type: physicochemical; conditions: buffer, read-out: Stability
# [7] = Chemical stability of the compound assessed as compound remaining at pH 9 at 37 degC after 24 hrs by HPLC-MS analysis; assay type: physicochemical; conditions: buffer, read-out: Stability
# [8] = species: Homo sapiens; test: Selectivity ratio of Ki for human recombinant soluble NTPDase2 to Ki for human recombinant NPP1
# [9] = species: Homo sapiens; test: Selectivity ratio of Ki for human recombinant NPP2 to Ki for human recombinant NPP1
# Chain of 5'-nucleotidase (Homo sapiens) (P21589 whole entry): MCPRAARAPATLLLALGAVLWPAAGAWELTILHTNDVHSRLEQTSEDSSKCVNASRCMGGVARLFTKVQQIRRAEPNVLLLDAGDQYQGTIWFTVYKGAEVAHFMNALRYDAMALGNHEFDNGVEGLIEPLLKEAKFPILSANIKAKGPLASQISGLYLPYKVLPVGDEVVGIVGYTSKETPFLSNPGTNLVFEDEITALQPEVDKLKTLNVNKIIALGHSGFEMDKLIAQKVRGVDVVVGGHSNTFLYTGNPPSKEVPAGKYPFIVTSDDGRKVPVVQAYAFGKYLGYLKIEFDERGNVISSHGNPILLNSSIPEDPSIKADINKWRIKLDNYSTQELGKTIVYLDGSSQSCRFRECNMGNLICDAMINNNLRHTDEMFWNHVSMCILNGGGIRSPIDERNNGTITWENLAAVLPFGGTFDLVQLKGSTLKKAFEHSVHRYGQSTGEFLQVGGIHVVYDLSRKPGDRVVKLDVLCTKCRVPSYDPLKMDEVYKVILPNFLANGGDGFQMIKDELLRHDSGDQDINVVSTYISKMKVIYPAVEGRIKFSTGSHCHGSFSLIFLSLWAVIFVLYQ
compound,measurement,setting,value
O=c1/c(=C/c2ccc(I)o2)sc2nc3ccccc3n12,inhibition,[1],inactive
same,inhibition,[2],Active
same,inhibition,[3],Active
same,inhibition,[4],inactive
same,Stability,[5],Stable
same,remaining at 24 h,[6],52.4%
same,remaining at 24 h,[7],27.4%
same,Ratio Ki,[8],1000
same,Ratio Ki,[9],1000
